Read-outs that look alike come from different tables or passages of the source.
Assays:
Human erythrocyte AChE = Human erythrocyte AChE (Homo sapiens, UniProt P22303); experiment: biochemical; assay type: biochemical; conditions: for AChE activity relative to tacrine (times more active): vs tacrine
Description: (§1) Human erythrocyte AChE and equine serum BChE were purchased from Milamed (Perm, Russia). Porcine liver CES, substrates, and reference compounds were from Sigma-Aldrich (St. Louis, MO, USA). The activity of enzymes was measured spectrophotometrically, as described in detail in [72] using ATCh iodide, BTCh iodide, and 4-NPA as substrates for AChE, BChE, and CES, respectively. Experimental conditions: K,Na—phosphate buffer (100 mM), 25 °C, pH 7.5 for AChE and BChE and pH 8.0 for CES assay. Measurements were carried out on a FLUOStar Optima microplate reader (BMG Labtech, Ortenberg, Germany).
(§2) Test compounds were dissolved in DMSO; the final concentration of solvent in the incubation mixture was 2% (v/v).

equine serum BChE = equine serum BChE (Equus caballus, UniProt P81908); experiment: biochemical; assay type: biochemical; conditions: for BChE activity relative to tacrine (times more active): vs tacrine
Sequence of equine serum BChE (P81908 whole entry): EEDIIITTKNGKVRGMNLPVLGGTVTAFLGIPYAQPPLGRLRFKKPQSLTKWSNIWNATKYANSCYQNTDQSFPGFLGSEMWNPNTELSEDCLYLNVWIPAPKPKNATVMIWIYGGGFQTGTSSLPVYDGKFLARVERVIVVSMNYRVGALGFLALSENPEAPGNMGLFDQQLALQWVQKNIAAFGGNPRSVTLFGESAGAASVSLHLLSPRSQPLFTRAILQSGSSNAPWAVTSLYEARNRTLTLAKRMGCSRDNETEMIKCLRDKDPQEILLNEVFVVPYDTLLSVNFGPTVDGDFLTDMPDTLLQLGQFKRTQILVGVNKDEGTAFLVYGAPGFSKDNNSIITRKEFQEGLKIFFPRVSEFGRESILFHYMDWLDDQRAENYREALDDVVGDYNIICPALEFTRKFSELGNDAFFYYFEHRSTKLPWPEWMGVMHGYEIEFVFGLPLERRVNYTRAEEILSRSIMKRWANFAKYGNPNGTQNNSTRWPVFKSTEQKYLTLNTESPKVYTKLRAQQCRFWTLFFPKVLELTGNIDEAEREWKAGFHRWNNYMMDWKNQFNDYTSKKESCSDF
Description: as §1, §2

Porcine liver CES = experiment: CES inhibition, spectrophotometric, 4-NPA substrate; assay type: biochemical
Description: as §1
Test compounds were dissolved in DMSO; the final concentration of solvent in the incubation mixture was 2% (v/v). […]

Aβ42 = Aβ42 (Homo sapiens, UniProt P05067); experiment: Inhibition of Aβ42 self-aggregation, thioflavin T fluorescence; assay type: biochemical; conditions: Aβ42 50 µM, compound 100 µM; for inhibition at 100 µM: read-out: Inhibition of Aβ42 Self-Aggregation
Sequence of Aβ42 (P05067 672-713): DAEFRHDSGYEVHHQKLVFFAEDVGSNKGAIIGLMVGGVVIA

[1] = ABTS radical cation scavenging assay; conditions: for ABTS•+-Scavenging Activity TEAC: Trolox equivalents; for time to reach the activity level of Trolox in ABTS radical scavenging: compound at 20 μM (IC50 of Trolox)
[2] = Ferric-reducing antioxidant power (FRAP) assay; conditions: Trolox equivalents
[3] = test system: free radicals in mouse brain homogenate (TBHP-initiated); assay type: biochemical; conditions: read-out: Radical Scavenging Capacity, Luminol Chemiluminescence Assay IC50
[4] = test system: spontaneous lipid peroxidation in mouse brain homogenate; assay type: biochemical
[5] = target: peripheral anionic site of Electrophorus electricus AChE (EeAChE) (Electrophorus electricus, UniProt O42275); assay type: binding;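 note: compounds tested at 20 µM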
Sequence of peripheral anionic site of Electrophorus electricus AChE (EeAChE) (O42275 24-633): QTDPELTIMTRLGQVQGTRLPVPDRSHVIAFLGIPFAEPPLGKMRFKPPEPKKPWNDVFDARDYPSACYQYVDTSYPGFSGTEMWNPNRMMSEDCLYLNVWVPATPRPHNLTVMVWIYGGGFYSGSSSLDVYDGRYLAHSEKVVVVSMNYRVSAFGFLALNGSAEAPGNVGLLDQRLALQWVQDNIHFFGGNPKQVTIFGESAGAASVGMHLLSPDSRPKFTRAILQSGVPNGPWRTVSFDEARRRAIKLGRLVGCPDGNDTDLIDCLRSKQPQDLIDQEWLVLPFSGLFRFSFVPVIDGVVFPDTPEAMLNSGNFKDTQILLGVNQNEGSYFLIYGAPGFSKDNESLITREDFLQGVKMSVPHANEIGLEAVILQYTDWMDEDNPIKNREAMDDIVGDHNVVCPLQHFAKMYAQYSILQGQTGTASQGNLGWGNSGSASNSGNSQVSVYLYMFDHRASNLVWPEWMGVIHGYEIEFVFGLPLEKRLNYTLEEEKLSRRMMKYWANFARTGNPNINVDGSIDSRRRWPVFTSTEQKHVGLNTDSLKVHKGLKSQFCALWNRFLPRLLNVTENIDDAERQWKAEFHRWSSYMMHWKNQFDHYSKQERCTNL

AChE = AChE (Homo sapiens, UniProt P22303); experiment: biochemical; assay type: biochemical; conditions: for Ki: read-out: AChE Ki (competitive inhibition constant)
Sequence of AChE (P22303 other isoform, or with tags, fused parts or gaps): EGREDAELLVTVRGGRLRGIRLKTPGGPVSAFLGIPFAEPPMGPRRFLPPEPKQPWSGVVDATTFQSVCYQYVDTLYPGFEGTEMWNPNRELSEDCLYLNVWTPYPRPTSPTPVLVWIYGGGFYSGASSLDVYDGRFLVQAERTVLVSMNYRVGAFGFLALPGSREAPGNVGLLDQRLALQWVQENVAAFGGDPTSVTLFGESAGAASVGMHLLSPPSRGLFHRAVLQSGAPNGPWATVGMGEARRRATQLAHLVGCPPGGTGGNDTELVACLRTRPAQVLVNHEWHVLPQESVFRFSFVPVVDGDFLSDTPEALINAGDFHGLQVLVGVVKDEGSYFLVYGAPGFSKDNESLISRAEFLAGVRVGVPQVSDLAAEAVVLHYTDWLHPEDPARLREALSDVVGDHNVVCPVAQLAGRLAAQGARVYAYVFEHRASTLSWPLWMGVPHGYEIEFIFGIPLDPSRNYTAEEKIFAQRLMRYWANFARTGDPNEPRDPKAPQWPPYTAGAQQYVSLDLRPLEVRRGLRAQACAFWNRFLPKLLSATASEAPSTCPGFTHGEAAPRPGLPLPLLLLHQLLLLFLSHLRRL
Description: (§3) A mechanism of AChE and BChE inhibition was assessed by a detailed analysis of enzyme kinetics with three increasing concentrations of inhibitor and six substrate concentrations, as described in detail in [72].

eqBChE = eqBChE (Equus caballus, UniProt P81908); experiment: biochemical; assay type: biochemical; conditions: for Ki: read-out: eqBChE Ki (competitive inhibition constant)
Sequence of eqBChE (P81908 whole entry): as the sequence (P81908 whole entry) above
Description: as §3

[6] = read-out: Inhibition of Spontaneous Lipid Peroxidation in Mouse Brain Homogenate, TBARS Assay IC50

Sequence of Human erythrocyte AChE (P22303 other isoform, or with tags, fused parts or gaps): as the sequence (P22303 other isoform, or with tags, fused parts or gaps) above

Row | Compound | CES % inhibition at 20 μM (Porcine liver CES) | IC50 [1] | ABTS•+-Scavenging Activity TEAC [1] | Ferric-Reducing Antioxidant Power TE [2] | IC50 [3] | IC50 [4, 6] | IC50 (Human erythrocyte AChE) | IC50 (equine serum BChE) | Propidium Displacement [5] | AChE αKi (non-competitive inhibition constant) (AChE) | Ki (AChE) | eqBChE αKi (non-competitive inhibition constant) (eqBChE) | Ki (eqBChE) | inhibition at 100 µM (Aβ42) | time to reach the activity level of Trolox in ABTS radical scavenging [1] | further results
1 | Cc1cc(C(C)(C)C)c(O)c(C(C)(C)C)c1 [BHT, butylated hydroxytoluene, reference compound] | 5.6 ± 0.2% | 22.4 ± 1.4 µM | 0.98 ± 0.03 | 0.96 ± 0.02 | 70.4 ± 4.1 µM | 6.9 ± 0.3 µM | – | – | – | – | – | – | – | – | – | inhibition at 20 µM (Human erythrocyte AChE; read-out: AChE % inhibition at 20 μM): 6 ± 1.5%; inhibition at 20 µM (equine serum BChE; read-out: BChE % inhibition at 20 μM): 18.9 ± 1.7%; Inhibition of Aβ42 Self-Aggregation (Aβ42): not detectable; IC50 ([4]; read-out: Inhibition of spontaneous lipid peroxidation in mice brain homogenate (TBARS Assay) IC50): 7 µM
2 | CC(C)(C)c1cc(CNCCCCCCCCNc2c3c(nc4ccccc24)CCCCC3)cc(C(C)(C)C)c1O [18d, 2,6-Di-tert-butyl-4-{[8-(7,8,9,10-tetrahydro-6H-cyclohepta[b]quinolin-11-ylamino)-octylamino]-methyl}-phenol] | 13.9 ± 1.2% | 15.8 ± 0.6 µM | – | 0.45 ± 0.01 | 9.2 ± 0.6 µM | 20.2 ± 3.3 µM | 0.0308 ± 0.0002 µM | 0.00596 ± 0.00058 µM | 12.3 ± 0.8% | 25.1 ± 0.2 nM | 0.013 ± 0.001 µM | 6.06 ± 0.41 nM | 0.00425 ± 0.00033 µM | 59.6 ± 4.7% | less than 1 min | BChE activity relative to tacrine (times more active) (equine serum BChE): 5 times
3 | CC(C)(C)c1cc(CNCCCCCCCCNc2c3c(nc4ccccc24)CCCC3)cc(C(C)(C)C)c1O [17d, 2,6-Di-tert-butyl-4-{[8-(1,2,3,4-tetrahydro-acridin-9-ylamino)-octylamino]-methyl}-phenol] | 23.6 ± 2.1% | 15.2 ± 0.7 µM | – | 0.57 ± 0.01 | 11.3 ± 1.5 µM | – | 0.0151 ± 0.002 µM | 0.00756 ± 0.00042 µM | 13.4 ± 1.2% | – | – | – | – | 71.4 ± 4.9% | less than 1 min | AChE activity relative to tacrine (times more active) (Human erythrocyte AChE): ~ 40 times
4 | CC(C)(C)c1cc(CNCCCCCCNc2c3c(nc4ccccc24)CCCC3)cc(C(C)(C)C)c1O [17c, 2,6-Di-tert-butyl-4-{[6-(1,2,3,4-tetrahydro-acridin-9-ylamino)-hexylamino]-methyl}-phenol] | 18.5 ± 1.6% | 15.7 ± 0.6 µM | 1.32 ± 0.08 | 0.44 ± 0.02 | – | – | 0.0702 ± 0.0011 µM | 0.0361 ± 0.023 µM | 16.1 ± 1.1% | – | – | – | – | 64.1 ± 5.7% | less than 1 min | –
5 | CC(C)(C)c1cc(CNCCCCCCCCNc2c3c(nc4ccccc24)CCC3)cc(C(C)(C)C)c1O [16d, 2,6-Di-tert-butyl-4-{[8-(2,3-dihydro-1H-cyclopenta[b]quinolin-9-ylamino)-octylamino]-methyl}-phenol] | 17.2 ± 0.2% | 21.3 ± 1.2 µM | 1.00 ± 0.03 | 0.61 ± 0.01 | – | – | 0.094 ± 0.006 µM | 0.017 ± 0.0016 µM | 13.9 ± 1.1% | – | – | – | – | 54.6 ± 3.9% | – | –
6 | CC(C)(C)c1cc(C=NCCCCCCCCNc2c3c(nc4ccccc24)CCCC3)cc(C(C)(C)C)c1O [14d, 2,6-Di-tert-butyl-4-{[8-(1,2,3,4-tetrahydro-acridin-9-ylamino)-octylimino]-methyl}-phenol] | 28.8 ± 2.0% | 18.2 ± 0.7 µM | 1.06 ± 0.03 | 0.70 ± 0.03 | 1.9 ± 0.1 µM | 20.4 ± 2.3 µM | 0.0171 ± 0.0016 µM | 0.00939 ± 0.00042 µM | 14.8 ± 1.0% | – | – | – | – | 70.4 ± 5.6% | – | AChE potency relative to compound 14a (times more potent) (Human erythrocyte AChE; vs 14a): 350 times; AChE activity relative to tacrine (times more active) (Human erythrocyte AChE): ~ 40 times
7 | CC(C)(C)c1cc(C=NCCCCCCCCNc2c3c(nc4ccccc24)CCCCC3)cc(C(C)(C)C)c1O [15d, 2,6-Di-tert-butyl-4-{[8-(7,8,9,10-tetrahydro-6H-cyclohepta[b]quinolin-11-ylamino)-octylimino]-methyl}-phenol] | 25.5 ± 1.1% | 19.6 ± 0.8 µM | 1.00 ± 0.03 | 0.73 ± 0.02 | 3 ± 0.1 µM | 29.1 ± 2.4 µM | 0.026 ± 0.0024 µM | 0.00624 ± 0.00054 µM | 14.9 ± 1.2% | 31.4 ± 2.4 nM | 0.0199 ± 0.0008 µM | 5.68 ± 0.06 nM | 0.00491 ± 0.00042 µM | 63.5 ± 5% | – | BChE activity relative to tacrine (times more active) (equine serum BChE): 5 times; type of AChE inhibition (AChE): mixed type; type of BChE inhibition (eqBChE): mixed type
8 | CC(C)(C)c1cc(C=NCCCCCCCCNc2c3c(nc4ccccc24)CCC3)cc(C(C)(C)C)c1O [13d, 2,6-Di-tert-butyl-4-{[8-(2,3-dihydro-1H-cyclopenta[b]quinolin-9-ylamino)-octylimino]-methyl}-phenol] | 26.3 ± 1.7% | 22.7 ± 1.2 µM | 0.85 ± 0.03 | 0.71 ± 0.03 | – | – | 0.107 ± 0.009 µM | 0.0417 ± 0.0003 µM | 15.1 ± 0.9% | – | – | – | – | 49.4 ± 4.3% | – | –
9 | CC(C)(C)c1cc(CNCCCCCCNc2c3c(nc4ccccc24)CCCCC3)cc(C(C)(C)C)c1O [18c, 2,6-Di-tert-butyl-4-{[6-(7,8,9,10-tetrahydro-6H-cyclohepta[b]quinolin-11-ylamino)-hexylamino]-methyl}-phenol] | 16.8 ± 0.5% | 21.6 ± 1.1 µM | 1.00 ± 0.03 | 0.43 ± 0.02 | 14.6 ± 0.8 µM | 24.6 ± 2.8 µM | 0.103 ± 0.004 µM | 0.0149 ± 0.0003 µM | 12.5 ± 0.9% | 101 ± 5 nM | 0.0831 ± 0.0014 µM | 17.3 ± 0.2 nM | 0.00783 ± 0.00076 µM | 47.8 ± 3.8% | – | –
10 | CC(C)(C)c1cc(C=NCCCCCCNc2c3c(nc4ccccc24)CCCCC3)cc(C(C)(C)C)c1O [15c, 2,6-Di-tert-butyl-4-{[6-(7,8,9,10-tetrahydro-6H-cyclohepta[b]quinolin-11-ylamino)-hexylimino]-methyl}-phenol] | 25.4 ± 0.9% | 22.3 ± 1.1 µM | 0.90 ± 0.03 | 0.52 ± 0.02 | 2.3 ± 0.3 µM | 27.6 ± 1.7 µM | 0.151 ± 0.013 µM | 0.0106 ± 0.0002 µM | 16.8 ± 1.2% | 108 ± 3 nM | 0.0698 ± 0.005 µM | 9.34 ± 0.62 nM | 0.00513 ± 0.0001 µM | 43.4 ± 3.9% | – | –
